The text below walks through data of patent publication US9902696B2, “1,4-substituted piperidine derivatives” (Cephalon, Inc., priority 2015, dated 2018).

Where a name gives a salt, the structure may show the parent alone.

T1 sequence (P49327 whole entry): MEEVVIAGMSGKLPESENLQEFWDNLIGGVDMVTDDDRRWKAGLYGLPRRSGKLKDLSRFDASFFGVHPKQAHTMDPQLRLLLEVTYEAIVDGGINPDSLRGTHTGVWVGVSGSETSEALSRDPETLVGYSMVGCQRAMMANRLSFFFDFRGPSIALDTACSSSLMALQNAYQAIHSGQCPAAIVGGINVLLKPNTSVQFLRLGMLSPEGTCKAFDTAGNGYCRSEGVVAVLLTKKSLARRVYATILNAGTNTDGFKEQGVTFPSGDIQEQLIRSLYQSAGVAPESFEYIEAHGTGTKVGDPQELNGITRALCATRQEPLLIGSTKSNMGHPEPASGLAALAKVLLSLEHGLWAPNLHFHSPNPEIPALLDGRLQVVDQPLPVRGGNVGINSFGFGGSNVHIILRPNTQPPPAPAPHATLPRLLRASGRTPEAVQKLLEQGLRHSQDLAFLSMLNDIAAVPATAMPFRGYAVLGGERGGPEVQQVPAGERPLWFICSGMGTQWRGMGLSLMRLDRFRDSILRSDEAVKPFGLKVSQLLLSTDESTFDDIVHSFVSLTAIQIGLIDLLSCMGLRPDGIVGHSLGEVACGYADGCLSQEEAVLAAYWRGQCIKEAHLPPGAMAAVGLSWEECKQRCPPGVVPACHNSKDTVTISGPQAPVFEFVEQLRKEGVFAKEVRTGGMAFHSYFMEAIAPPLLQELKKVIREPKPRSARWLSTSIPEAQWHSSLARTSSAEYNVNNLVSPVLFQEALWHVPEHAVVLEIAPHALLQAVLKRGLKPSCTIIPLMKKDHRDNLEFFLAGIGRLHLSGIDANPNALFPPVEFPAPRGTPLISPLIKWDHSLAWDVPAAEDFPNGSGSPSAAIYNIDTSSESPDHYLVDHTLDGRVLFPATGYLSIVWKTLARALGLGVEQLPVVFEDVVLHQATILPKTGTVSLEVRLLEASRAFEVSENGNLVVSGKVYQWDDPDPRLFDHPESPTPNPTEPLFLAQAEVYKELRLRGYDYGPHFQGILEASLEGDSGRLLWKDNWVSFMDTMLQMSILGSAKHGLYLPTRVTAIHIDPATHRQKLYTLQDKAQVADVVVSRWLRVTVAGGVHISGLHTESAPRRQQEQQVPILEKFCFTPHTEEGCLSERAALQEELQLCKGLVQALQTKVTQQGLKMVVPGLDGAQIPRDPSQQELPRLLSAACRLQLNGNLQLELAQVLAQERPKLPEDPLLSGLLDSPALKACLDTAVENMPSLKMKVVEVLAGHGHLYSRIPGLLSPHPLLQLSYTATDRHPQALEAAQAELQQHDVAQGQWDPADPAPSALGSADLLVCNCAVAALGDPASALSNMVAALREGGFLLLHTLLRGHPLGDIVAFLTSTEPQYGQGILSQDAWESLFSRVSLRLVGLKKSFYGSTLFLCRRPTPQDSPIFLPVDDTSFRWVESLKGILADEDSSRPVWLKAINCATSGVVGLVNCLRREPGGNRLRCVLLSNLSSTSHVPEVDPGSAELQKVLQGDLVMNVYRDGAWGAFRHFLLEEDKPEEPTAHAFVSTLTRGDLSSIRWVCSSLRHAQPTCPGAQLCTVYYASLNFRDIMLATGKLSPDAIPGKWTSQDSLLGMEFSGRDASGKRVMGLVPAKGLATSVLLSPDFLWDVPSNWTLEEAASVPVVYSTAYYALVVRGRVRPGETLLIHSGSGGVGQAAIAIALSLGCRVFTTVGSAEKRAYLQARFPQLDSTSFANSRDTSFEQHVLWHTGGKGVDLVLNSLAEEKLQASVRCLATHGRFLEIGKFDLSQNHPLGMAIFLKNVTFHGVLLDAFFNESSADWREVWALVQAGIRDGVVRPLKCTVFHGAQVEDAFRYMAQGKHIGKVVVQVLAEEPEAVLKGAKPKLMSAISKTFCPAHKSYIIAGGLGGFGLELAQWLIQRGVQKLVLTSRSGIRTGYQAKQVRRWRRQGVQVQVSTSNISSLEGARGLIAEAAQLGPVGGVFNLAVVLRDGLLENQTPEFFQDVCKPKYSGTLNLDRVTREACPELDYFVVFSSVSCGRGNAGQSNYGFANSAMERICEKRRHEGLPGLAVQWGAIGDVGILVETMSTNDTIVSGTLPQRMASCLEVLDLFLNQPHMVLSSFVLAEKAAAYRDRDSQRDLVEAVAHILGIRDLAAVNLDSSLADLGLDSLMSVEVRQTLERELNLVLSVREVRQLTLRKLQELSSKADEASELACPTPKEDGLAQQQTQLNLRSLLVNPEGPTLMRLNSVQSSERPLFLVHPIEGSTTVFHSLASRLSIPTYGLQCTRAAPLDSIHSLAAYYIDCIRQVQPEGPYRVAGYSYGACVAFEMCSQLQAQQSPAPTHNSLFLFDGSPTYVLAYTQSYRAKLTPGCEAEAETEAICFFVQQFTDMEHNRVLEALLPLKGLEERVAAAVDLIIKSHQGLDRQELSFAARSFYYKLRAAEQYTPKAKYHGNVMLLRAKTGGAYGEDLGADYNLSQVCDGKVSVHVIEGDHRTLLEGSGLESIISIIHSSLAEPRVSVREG

This assay concerns the target T1, recombinant human baculovirus-expressed GST-tagged FASN (Homo sapiens, UniProt P49327).
T1 construct: GST
The assay is described as follows: FASN enzyme activity assay, fluorescence-based detection of CoA with CPM. The format is biochemical. To be noted: 5 nM FASN, 150 μM NADPH, 10 μM acetyl-CoA, 25 μM malonyl-CoA, 90 minutes incubation; read-out: IC50 data for Additional Compounds of Formulae I-V(a): Activity. Put shortly: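 Human GST-tagged FASN, baculovirus-expressed (5 nM), in 50 mM HEPES pH 7.5 with 150 μM NADPH, 10 μM acetyl-CoA, 25 μM malonyl-CoA, 0.5% DMSO; malonyl-CoA-started, 90 min. Released CoA detected with CPM (50 μM dilution), 30 min, fluorescence ex 390/em 530. IC50 from variable-slope sigmoidal fit of % inhibition versus log concentration.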
As a reminder, the IC50 is the concentration that inhibits the measured activity by half. Regarding `Cc1c(-c2ccc(OC3CCN(C(=O)NO)CC3)cc2)ccc2nccn12` [Example 613, 4-[4-(5-Methylimidazo[1,2-a]pyridin-6-yl)phenoxy]piperidine-1-carbohydroxamic acid], the IC50 was 1000 to 10000 nM.

On to `Cc1c(-c2ccc(OC3CCN(C(=O)CN(C)C)CC3)cc2)ccc2cccnc12` [Example 614, 2-(Dimethylamino)-1-[4-[4-(8-methyl-7-quinolyl)phenoxy]-1-piperidyl]-ethanone], for which the IC50 was 1000 to 10000 nM.

For the compound `Cc1c(-c2ccc(OC3CCN(C(N)=O)CC3)cc2)ccc2nccn12` [Example 615, 4-[4-(5-Methylimidazo[1,2-a]pyridin-6-yl)phenoxy]piperidine-1-carboxamide], the IC50 is 1000 to 10000 nM.

With `Cc1c(-c2ccc(OC3CCN(C(=O)[C@H]4CCCN4C)CC3)cc2)ccc2cccnc12` [Example 616, [(2R)-1-Methylpyrrolidin-2-yl]-[4-[4-(8-methyl-7-quinolyl)phenoxy]-1-piperidyl]methanone], the half-inhibitory concentration (IC50) was 1000 to 10000 nM.

As to `Cc1c(-c2ccc(OC3CCN(C(=O)[C@@H]4CCCN4C)CC3)cc2)ccc2cccnc12` [Example 617, [(2S)-1-Methylpyrrolidin-2-yl]-[4-[4-(8-methyl-7-quinolyl)phenoxy]-1-piperidyl]methanone], the IC50 was 1000 to 10000 nM.

In the case of `Cc1c(-c2ccc(OC3CCN(C(=O)SC(C)C)CC3)cc2)ccc2cccnc12` [Example 618, S-Isopropyl 4-[4-(8-methyl-7-quinolyl)phenoxy]piperidine-1-carbothioate], the half-maximal inhibitory concentration (IC50) lay within 1000 to 10000 nM.

`Cc1c(-c2ccc(OC3CCN(C(=O)C(C)(C)N)CC3)cc2)ccc2cccnc12` [Example 619, 2-Amino-2-methyl-1-[4-[4-(8-methyl-7-quinolyl)phenoxy]-1-piperidyl]propan-1-one]: the IC50 was 1000 to 10000 nM.

`Cc1c(-c2ccc(OC3CCN(C(=O)[C@H]4CCCN4)CC3)cc2)ccc2cccnc12` [Example 620, [4-[4-(8-Methyl-7-quinolyl)phenoxy]-1-piperidyl]-[(2R)-pyrrolidin-2-yl]methanone]: the IC50 lay in the range of 1000 to 10000 nM.

In the case of `Cc1c(-c2ccc(OC3CCN(C(=O)[C@@H]4CCCN4)CC3)cc2)ccc2cccnc12` [Example 621, [4-[4-(8-Methyl-7-quinolyl)phenoxy]-1-piperidyl]-[(2S)-pyrrolidin-2-yl]-methanone], the IC50 lay within 1000 to 10000 nM.

Regarding `CNC1(C(=O)N2CCC(Oc3ccc(-c4ccc5cccnc5c4C)cc3)CC2)CC1` [Example 622, [1-(Methylamino)cyclopropyl]-[4-[4-(8-methyl-7-quinolyl)phenoxy]-1-piperidyl]methanone], the IC50 lay in the range of 1000 to 10000 nM.

With `Cc1c(-c2ccc(OC3CCN(C(=O)CCN)CC3)cc2)ccc2cccnc12` [Example 623, 3-Amino-1-[4-[4-(8-methyl-7-quinolyl)phenoxy]-1-piperidyl]propan-1-one, 2HCl], the IC50 fell in the range of 1000 to 10000 nM.

As to `Cc1c(-c2ccc(OC3CCN(C(=O)COC(C)C)CC3)cc2)ccc2cccnc12` [Example 624, 2-Isopropoxy-1-[4-[4-(8-methyl-7-quinolyl)phenoxy]-1-piperidyl]ethanone, HCl], the IC50 was 1000 to 10000 nM.

As to `CC(=O)OCC(=O)N1CCC(Oc2ccc(-c3ccc4cccnc4c3C)cc2)CC1` [Example 625, [2-[4-[4-(8-Methyl-7-quinolyl)phenoxy]-1-piperidyl]-2-oxo-ethyl]acetate], the IC50 is 1 to 99 nM.

As to `Cc1c(-c2ccc(OC3CCN(C(=O)CO)CC3)cc2)ccc2cccnc12` [Example 626, 2-Hydroxy-1-[4-[4-(8-methyl-7-quinolyl)phenoxy]-1-piperidyl]ethanone], the IC50 was 1 to 99 nM.

Regarding `Cc1c(-c2ccc(OC3CCN(C(=O)C4(N)CCC4)CC3)cc2)ccc2cccnc12` [Example 627, (1-Aminocyclobutyl)-[4-[4-(8-methyl-7-quinolyl)phenoxy]-1-piperidyl]-methanone], the IC50 lay in the range of 1000 to 10000 nM.

In the case of `CCNC(=O)N1CCC(Oc2ccc(-c3ccn4ccnc4c3)cc2)CC1` [Example 628, N-Ethyl-4-(4-imidazo[1,2-a]pyridin-7-ylphenoxy)piperidine-1-carboxamide, HCl], the IC50 lay in the range of 1 to 99 nM.
